According to patent publication US20080167332A1, “Novel Compounds 243” (priority 2006, published 2008):
Where a name gives a salt, the structure may show the parent alone. Read-outs that look alike come from different tables or passages of the source.

What was measured:
[1] = biological target: T1, recombinant human CCR1 (Homo sapiens, UniProt P32246); assay: Human CCR1 binding assay ([125I] MIP-1α displacement); details: displacement of 33 pM [125I] MIP-1α, HEK-CCR1 membranes
T1 construct: expressed in transfected cells; membranes
T1 sequence (P32246 1-355): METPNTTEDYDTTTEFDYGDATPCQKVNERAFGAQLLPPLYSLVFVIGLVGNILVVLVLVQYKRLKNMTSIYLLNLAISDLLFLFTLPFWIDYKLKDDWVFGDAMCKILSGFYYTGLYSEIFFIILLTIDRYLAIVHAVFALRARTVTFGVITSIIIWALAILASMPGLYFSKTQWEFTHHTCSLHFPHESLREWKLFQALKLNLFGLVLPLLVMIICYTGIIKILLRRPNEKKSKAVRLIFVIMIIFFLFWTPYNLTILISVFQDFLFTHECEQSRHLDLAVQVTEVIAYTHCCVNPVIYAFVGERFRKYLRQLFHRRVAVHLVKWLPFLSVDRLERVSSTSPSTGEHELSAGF
Procedure: HEK293 cells, from ECACC, stably expressing recombinant human CCR1 (HEK-CCR1) were used to prepare cell membranes containing CCR1. The membranes were stored at −70° C. The concentration of membranes of each batch was adjusted to 10% specific binding of 33 pM [^125I] MIP-1α.
100 μL of HEK-CCR1 membranes diluted in assay buffer pH 7.4 ((137 mM NaCl (Merck, Cat No 1.06404), 5.7 mM Glucose (Sigma, Cat No G5400), 2.7 mM KCl (Sigma, Cat No P-9333), 0.36 mM NaH2PO4×H2O (Merck, Cat No 1.06346), 10 mM HEPES (Sigma, Cat No H3375), 0.1% (w/v) Gelatine (Sigma, Cat No G2625)) with the addition of 17500 units/L Bacitracin (Sigma, Cat No B1025) were added to each well of the 96 well filter plate (0.45 μm opaque Millipore cat no MHVB N4550). 12 μL of compound in assay buffer, containing 10% DMSO, was added to give final compound concentrations of 1×10^−5.5−I×10^−9.5 M. 12 μL cold human recombinant MIP-1α (270-LD-050, R&D Systems, Oxford, UK), 10 nM final concentration in assay buffer supplemented with 10% DMSO, was included in certain wells (without compound) as non-specific binding control (NSB). 12 μL assay buffer with 10% DMSO was added to certain wells (without compound) to detect maximal binding (B0).
12 μL [^125I] MIP-1α, diluted in assay buffer to a final concentration in the wells of 33 pM, was added to all wells. The plates with lid were then incubated for 1.5 h at room temperature. After incubation the wells were emptied by vacuum filtration (MultiScreen Resist Vacuum Manifold system, Millipore) and washed once with 200 μL assay buffer. After the wash, all wells received an addition of […] of scintillation fluid (OptiPhase “Supermix”, Wallac Oy, Turko, Finland). Bound [^125I] MIP-1α was measured using a Wallac Trilux 1450 MicroBeta counter. Window settings: Low 5-High 1020, 1-minute counting/well.
The following equation was used to calculate percent displacement.
Percent displacement=1−((cpm test−cpm NSB)/(cpm B0−cpm NSB)) where:
cpm test=average cpm in wells with membranes and compound and [^125I] MIP-1α; NSB=average cpm in the wells with membranes and MIP-1α and [^125I] MIP-1α (non-specific binding); B0=average cpm in wells with membranes and assay buffer and [^125I] MIP-1α (maximum binding).
The molar concentration of compound producing 50% displacement (IC50) was derived using the Excel-based program XLfit (version 2.0.9) to fit data to a 4-parameter logistics function.

[2] = biological target: T2, human ether-a-go-go-related-gene (hERG)-encoded potassium channel (Homo sapiens, UniProt Q12809); assay: hERG-encoded potassium channel binding assay; details: HEK 293 cell membranes expressing the IKR channel, radioligand binding; read-out: hERG binding concentration
T2 construct: expressed in transfected cells; host or cells: HEK 293 cell membranes
T2 sequence (Q12809 whole entry): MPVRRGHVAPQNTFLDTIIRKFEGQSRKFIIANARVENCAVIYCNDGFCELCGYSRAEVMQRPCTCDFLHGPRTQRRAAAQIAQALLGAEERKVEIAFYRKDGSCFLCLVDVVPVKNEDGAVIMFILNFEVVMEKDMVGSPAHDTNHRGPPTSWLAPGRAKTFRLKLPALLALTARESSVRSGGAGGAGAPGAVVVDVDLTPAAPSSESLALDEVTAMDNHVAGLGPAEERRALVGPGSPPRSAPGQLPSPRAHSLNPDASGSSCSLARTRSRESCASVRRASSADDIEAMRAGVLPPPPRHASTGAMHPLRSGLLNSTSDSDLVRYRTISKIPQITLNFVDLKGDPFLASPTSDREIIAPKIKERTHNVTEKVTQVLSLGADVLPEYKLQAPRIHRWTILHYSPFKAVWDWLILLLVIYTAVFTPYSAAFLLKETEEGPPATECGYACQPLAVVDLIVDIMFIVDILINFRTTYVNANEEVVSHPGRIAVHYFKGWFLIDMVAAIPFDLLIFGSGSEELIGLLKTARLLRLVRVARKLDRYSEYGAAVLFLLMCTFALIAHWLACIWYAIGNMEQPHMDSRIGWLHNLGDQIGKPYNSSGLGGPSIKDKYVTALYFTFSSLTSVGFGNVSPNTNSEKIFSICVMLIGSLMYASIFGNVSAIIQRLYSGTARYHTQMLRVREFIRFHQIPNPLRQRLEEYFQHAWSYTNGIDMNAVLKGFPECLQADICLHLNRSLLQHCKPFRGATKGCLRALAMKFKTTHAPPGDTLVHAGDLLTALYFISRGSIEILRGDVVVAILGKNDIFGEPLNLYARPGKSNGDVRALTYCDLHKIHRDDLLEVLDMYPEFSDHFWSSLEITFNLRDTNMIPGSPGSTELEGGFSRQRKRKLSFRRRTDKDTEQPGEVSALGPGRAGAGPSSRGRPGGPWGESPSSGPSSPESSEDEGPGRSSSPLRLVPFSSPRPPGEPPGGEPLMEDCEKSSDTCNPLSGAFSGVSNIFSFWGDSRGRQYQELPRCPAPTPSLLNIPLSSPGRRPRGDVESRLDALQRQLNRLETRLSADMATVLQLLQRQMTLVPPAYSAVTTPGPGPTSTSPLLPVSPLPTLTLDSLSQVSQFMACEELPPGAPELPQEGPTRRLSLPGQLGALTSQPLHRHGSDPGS
Procedure: This assay, which is described in full detail in example 2, WO2005037052, determines the ability of a test compound to bind to the human ether-a-go-go-related-gene (hERG)-encoded potassium channel. The assay comprises the following steps: a) incubation of HEK 293 cell membranes expressing the IKR channel in the presence of radioligand 3,7-bis[2-(4-nitro[3,5-^3H]phenyl)ethyl]-3,7-diazabicyclo[3.3.1]nonane, in the presence or absence of a test compound; b) quantitation of specifically bound labelled compound in the presence or absence of a test compound; c) calculation of the inhibition of labelled compound binding by the test compound. Similar protocols to determine affinity for the human ether-a-go-go-related-gene (hERG)-encoded potassium channel have been described by Finlayson, K. et al. [Eur. J. Pharmacol. 2001, 412, 203 and Eur. J. Pharmacol. 2001, 430, 147].

[3] = read-out: Result from assay: IC50
[4] = read-out: Result from assay: pIC50 (converted)

| Structure (SMILES) | IC50 [1, 3] [nM] | IC50 [1, 4] [nM] | IC50 [2] [nM] |
| --- | --- | --- | --- |
| CC(=O)Nc1cc(Cl)c(OCC(=O)O)cc1OC[C@@H](O)CN1CCC2(CC1)Cc1cc(Cl)ccc1O2 [Example 1, (4-(acetylamino)-2-chloro-5-{[(2S)-3-(5-chloro-1′H,3H-spiro[1-benzofuran-2,4′-piperidin]-1′-yl)-2-hydroxypropyl]oxy}phenoxy)acetic acid] |  | 0.562 | > 30000 |
| CC(=O)Nc1ccc(OCC(=O)O)cc1OC[C@@H](O)CN1CCC2(CC1)Cc1cc(Cl)ccc1O2 [Example 2, (4-(acetylamino)-3-{[(2S)-3-(5-chloro-1′H,3H-spiro[1-benzofuran-2,4′-piperidin]-1′-yl)-2-hydroxypropyl]oxy}phenoxy)acetic acid] | 10 |  |  |
| CC(=O)Nc1cc(Cl)c(OCC(=O)O)cc1OC[C@@H](O)CN1CCC2(CC1)Cc1cc(F)ccc1O2 [Example 3, (4-(acetylamino)-2-chloro-5-{[(2S)-3-(5-fluoro-1′H,3H-spiro[1-benzofuran-2,4′-piperidin]-1′-yl)-2-hydroxypropyl]oxy}phenoxy)acetic acid, hydrochloride] |  | 2.24 |  |
| CNC(=O)c1cc(Cl)c(OC(C)(C)C(=O)O)cc1OC[C@H](O)CN1CCC2(CC1)Cc1cc(Cl)ccc1O2 [Example 6, 2-{2-Chloro-5-{[(2R)-3-(5-chloro-1′H,3H-spiro[1-benzofuran-2,4′-piperidin]-1′-yl)-2-hydroxypropyl]oxy}-4-[(methylamino)carbonyl]phenoxy}-2-methylpropanoic acid] | 11 |  |  |
| O=C(O)COc1cc(OC[C@@H](O)CN2CCC3(CC2)Cc2cc(Cl)ccc2O3)c(C(=O)N2CC[C@H](O)C2)cc1Cl [Example 20, (2-Chloro-5-{[(2S)-3-(5-chloro-1′H,3H-spiro[1-benzofuran-2,4′-piperidin]-1′-yl)-2-hydroxypropyl]oxy}-4-{[(3S)-3-hydroxypyrrolidin-1-yl]carbonyl}phenoxy)acetic acid] | 2.02 |  |  |

Continued, in another order:

| IC50 [1, 3] [nM] | IC50 [1, 4] [nM] | Structure (SMILES) | IC50 [2] [nM] |
| --- | --- | --- | --- |
| 2.42 |  | CNC(=O)c1cc(Cl)c(OC(C)(C)C(=O)O)cc1OCC(O)CN1CCC2(CC1)Cc1cc(Cl)ccc1O2 (racemic) [Example 21, 2-{2-Chloro-5-{3-(5-chloro-1′H 3H-spiro[1-benzofuran-2,4′-piperidin]-1′-yl)-2-hydroxypropyl]oxy}-4-dimethylamino)carbonyl]-phenoxy}-2-methyl-propanoic acid trifluoracetate] |  |
| 20.2 |  | CNC(=O)c1cc(Cl)c(OCC(=O)O)cc1OC[C@@H](O)CN1CCC2(CC1)Cc1cc(Cl)ccc1O2 [Example 4] |  |
| 1.06 |  | CNC(=O)c1cc(Cl)c(OC(C)(C)C(=O)O)cc1OC[C@@H](O)CN1CCC2(CC1)Cc1cc(Cl)ccc1O2 [Example 5, 2-[2-Chloro-5-{[(2S)-3-(5-chloro-1′H,3H-spiro[l-benzofuran-2,4′-piperidin]-1′-yl)-2-hydroxypropyl]oxy}-4-[(methylamino)carbonyl]-phenoxy}-2-methylpropanoic acid TFA] |  |
| 11.4 |  | CN(C)C(=O)c1cc(Cl)c(OCC(=O)O)cc1OC[C@@H](O)CN1CCC2(CC1)Cc1cc(Cl)ccc1O2 [Example 18, {2-Chloro-5-{[(2S)-3-(5-chloro-1′H,3H-spirol[1-benzofuran-2,4′-piperidin]-1′-yl)-2-hydroxypropyl]oxy}-4-[(dimethylamino)carbonyl]phenoxy}acetic acid] |  |
| 1.6 |  | CN(C)C(=O)c1cc(Cl)c(OC(C)(C)C(=O)O)cc1OC[C@@H](O)CN1CCC2(CC1)Cc1cc(Cl)ccc1O2 [Example 19, 2-{2-Chloro-5-{[(2S)-3-(5-chloro-1′H, 3H-spiro[l-benzofuran-2,4′-piperidin]-1′-yl)-2-hydroxypropyl]oxy}-4-[(dimethylamino)carbonyl]-phenoxy}-2-methylpropanoic acid] |  |
| 71.7 |  | CNC(=O)c1cc(Cl)c(OC(C)(C)C(=O)O)cc1OC[C@@H](O)CN1CCC2(CC1)Cc1cc(Cl)cc(C(C)(C)C)c1O2 [Example 22, 2-[5-{[(2S)-3-(7-tert-Butyl-5-chloro-1′H, 3H-spiro[1-benzofuran-2,4′-piperidin]-1′-yl)-2-hydroxypropyl]oxy}-2-chloro-4-(methylcarbamoyl)phenoxy]-2-methylpropanoic acid] |  |
